These results are taken from patent publication US5428059A, “Benzopyran derivatives and an anti-allergic agent possessing the same as the active ingredient” (Dainippon Ink & Chemicals, Inc., priority 1991, dated 1995).

The test system of one experiment is Hartley-type male guinea pigs. The experiment is described as follows: Guinea Pig Homogeneous Skin Passive Anaphylaxis Assay (PCA reaction). In kind it is in vivo, guinea pig (Hartley-type). Particulars: 10 mg/kg oral, 48 h after sensitization. Summed up: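 Inhibition % is derived from Evans Blue leakage area (mm^2, product of spot diameters) read 30 min after i.v. OVA/dye challenge. Beforehand, male Hartley guinea pigs (250~300 g) were passively sensitized intradermally with 120-fold-diluted anti-OVA serum and, after 48 h, received test compound 10 mg/kg p.o.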
With `COc1cccc2c(OC(C)=O)c(OC(C)=O)c(=O)oc12` [Compound 113, 3,4-(diacetoxy)-8-(methoxy)-2H-1-benzopyran-2-one], the “Allergic reaction inhibitory index (%)” value turned out to be 30%.

The same experiment, now with this note: Cavia porcellus, 10 mg/kg oral, 48 h after sensitization, read-out: Allergic reaction inhibitory index (%).
Regarding `CC(C)=CCC/C(C)=C/COc1c(O)c2ccc(OC(C)C)cc2oc1=O` [Compound 53, 3-(geranyloxy)-4-hydroxy-7-(isopropoxy)-2H-1-benzopyran-2-one], the inhibition in vivo at 10 mg/kg was determined as 38%. As for `COc1cccc2c(O)c(OC(=O)c3ccccc3)c(=O)oc12` [Compound 110, 3-(benzoyloxy)-4-hydroxy-8-(methoxy)-2H-1-benzopyran-2-one], the inhibition in vivo at 10 mg/kg came to 31%. Same read-out and setting: the result for `CC(C)=CCC/C(C)=C/COc1c(OC(C)C)c(=O)oc2c(O)cccc12` [Compound 108, 3-(isopropoxy)-4-(geranyloxy)-8-hydroxy-2H-1-benzopyran-2-one] reads 32%.

For the molecule `CC(C)Oc1cccc2oc(=O)c(O)c(OC(C)C)c12` [Compound 215, 3-hydroxy-4,5-(diisopropoxy)-2H-1-benzopyran-2-one], the inhibition in vivo at 10 mg/kg stood at 34%. For `CC(=O)Oc1ccc2c(OC(C)=O)c(OC(C)=O)c(=O)oc2c1` [Compound 11, 3,4,7-(triacetoxy)-2H-1-benzopyran-2-one], the inhibition in vivo at 10 mg/kg worked out at 31%. Turning to `COc1c(O)c2c(OC/C=C(\C)CCC=C(C)C)cccc2oc1=O` [Compound 248, 3-(methoxy)-4-hydroxy-5-(geranyloxy)-2H-1-benzopyran-2-one], the inhibition in vivo at 10 mg/kg was found to be 35%. The same measure, in the same setting: then `CCCCCCCCCCOc1cccc2c(OC/C=C(\C)CCC=C(C)C)c(OC/C=C(\C)CCC=C(C)C)c(=O)oc12` [Compound 157, 3,4-(digeranyloxy)-8-(decyloxy)-2H-1-benzopyran-2-one], with 30%; and `COc1c(OC/C=C(\C)CCC=C(C)C)c(=O)oc2cc(OC/C=C(\C)CCC=C(C)C)ccc12` [Compound 87, 3,7-(digeranyloxy)-4-(methoxy)-2H-1-benzopyran-2-one], with 31%.

For `COc1c(OC/C=C(\C)CCC=C(C)C)c2c(OC)cccc2oc1=O` [Compound 208, 3,5-(dimethoxy)-4-(geranyloxy)-2H-1-benzopyran-2-one], the inhibition in vivo at 10 mg/kg was 32%. As for `CCCCCCCCCCOc1ccc2c(OC)c(OC(C)C)c(=O)oc2c1` [Compound 66, 3-(isopropoxy)-4-(methoxy)-7-(decyloxy)-2H-1-benzopyran-2-one], the inhibition in vivo at 10 mg/kg came to 30%.

`COc1ccc2c(OC/C=C(\C)CCC=C(C)C)c(O)c(=O)oc2c1` [Compound 38, 3-hydroxy-4-(geranyloxy)-7-(methoxy)-2H-1-benzopyran-2-one]: the inhibition in vivo at 10 mg/kg amounted to 31%.

Turning to `CCCCCCCCCCOc1c(OC(=O)c2ccccc2)c2c(OC(C)C)cccc2oc1=O` [Compound 218, 3-(decyloxy)-4-(benzoyloxy)-5-(isopropoxy)-2H-1-benzopyran-2-one], the inhibition in vivo at 10 mg/kg is 31%. Still for that read-out and setting: then `COc1c(OC(C)C)c2ccc(O)cc2oc1=O` [Compound 18, 3-(methoxy)-4-(isopropoxy)-7-hydroxy-2H-1-benzopyran-2-one], with 30%. Regarding `COc1ccc2c(OC(C)C)c(OC(C)=O)c(=O)oc2c1` [Compound 32, 3-(acetoxy)-4-(isopropoxy)-7-(methoxy)-2H-1-benzopyran-2-one], the inhibition in vivo at 10 mg/kg came out at 33%. The same measure, in the same setting: then `CC(=O)Oc1c(O)c(=O)oc2cccc(O)c12` [Compound 178, 3,5-(dihydroxy)-4-(acetoxy)-2H-1-benzopyran-2-one], with 30%.

With `COc1c(OC/C=C(\C)CCC=C(C)C)c(=O)oc2c(O)cccc12` [Compound 107, 3-(geranyloxy)-4-(methoxy)-8-hydroxy-2H-1-benzopyran-2-one], the inhibition in vivo at 10 mg/kg came to 33%.

On to `O=c1oc2ccc(O)cc2c(O)c1O` [Compound 263, 3,4,6-trihydroxy-2H-1-benzopyran-2-one], for which the inhibition in vivo at 10 mg/kg was 42%.
